A value given as a limit tells only on which side of the number the result lay.

Consider 28 compounds from patent publication US10934302B1, “SHP2 phosphatase inhibitors and methods of use thereof” (Relay Therapeutics, Inc., priority 2018, dated 2021).

Sequence of SHP2 (Q06124 whole entry): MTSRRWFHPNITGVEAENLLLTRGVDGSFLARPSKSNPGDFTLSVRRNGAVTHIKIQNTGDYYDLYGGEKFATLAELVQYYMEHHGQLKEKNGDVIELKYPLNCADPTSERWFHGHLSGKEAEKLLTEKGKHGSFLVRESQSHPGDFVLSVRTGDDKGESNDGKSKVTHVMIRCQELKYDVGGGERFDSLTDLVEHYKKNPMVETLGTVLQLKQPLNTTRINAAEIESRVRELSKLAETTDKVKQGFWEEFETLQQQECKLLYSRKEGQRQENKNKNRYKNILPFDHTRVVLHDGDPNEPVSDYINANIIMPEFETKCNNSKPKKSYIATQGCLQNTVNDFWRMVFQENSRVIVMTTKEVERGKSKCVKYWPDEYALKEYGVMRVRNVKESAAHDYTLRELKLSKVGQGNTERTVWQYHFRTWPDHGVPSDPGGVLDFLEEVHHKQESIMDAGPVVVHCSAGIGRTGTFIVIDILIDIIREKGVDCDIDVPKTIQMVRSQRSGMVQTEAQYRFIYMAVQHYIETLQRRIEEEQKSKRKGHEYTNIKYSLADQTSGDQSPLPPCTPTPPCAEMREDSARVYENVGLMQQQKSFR

One test addresses SHP2 (Homo sapiens (Human), UniProt Q06124). The test can be described thus: SHP2 allosteric inhibition assay (DiFMUP prompt fluorescence). In kind it is biochemical. The conditions noted are these: 0.25 nM SHP2 activated with 0.5 μM peptide IRS1_pY1172(dPEG8)pY1222; substrate DiFMUP.
Compound `Cn1c(N2CCC3(CC2)Cc2ccccc2[C@H]3N)ncc(N2CCCc3ccccc32)c1=O` [Example 205] had an IC50 of 50 to 1000 nM.

Compound `Nc1nccc(Sc2ccc(N3CCC4(CC3)Cc3ccccc3[C@H]4N)c(CO)n2)c1Cl` [Example 258, {3-[(3S)-3-amino-1,3-dihydrospiro[indene-2,4′-piperidin]-1′-yl]-6-[(2-amino-3-chloropyridin-4-yl)sulfanyl]pyridin-2-yl}methanol] had an IC50 of at most 50 nM.

Take `Cc1nc2c(cnn2-c2cccc3c(=O)n(C)ccc23)nc1N1CCC2(CC1)Oc1ccccc1[C@H]2N` [Example 203]: the IC50 is at most 50 nM.

In turn, `Cn1cc(-c2ccc3c(n2)CCCN3c2n[nH]c3nc(N4CCC5(CC4)Cc4cccnc4C5N)cnc23)cn1` (stereo not shown) [Example 46] returned an IC50 of at most 50 nM.

`Cc1nc(N2CCC3(CC2)Cc2ccccc2[C@H]3N)cnc1SC1CCCC1` [Example 250, (3S)-1′-[5-(cyclopentylsulfanyl)-6-methylpyrazin-2-yl]-1,3-dihydrospiro[indene-2,4′-piperidin]-3-amine] came in with an IC50 of at most 50 nM.

Turning to `N[C@@H]1c2ccccc2CC12CCN(c1cnc3c(-c4ccnc(Cl)c4Cl)n[nH]c3n1)CC2` [Example 70], the IC50 is 50 to 1000 nM.

As for `N[C@@H]1c2ccccc2CC12CCN(c1ncc(N3CCCCc4ccccc43)nc1CO)CC2` [Example 214, (S)-(3-(1-amino-1,3-dihydrospiro[indene-2,4′-piperidin]-1′-yl)-6-(2,3,4,5-tetrahydro-1H-benzo[b]azepin-1-yl)pyrazin-2-yl)methanol], the IC50 was at most 50 nM.

`N[C@@H]1c2ccccc2CC12CCN(c1nc3[nH]nc(N4CCCCC4)c3nc1CO)CC2` [Example 103]: the IC50 was at most 50 nM.

Compound `Cn1ccc(Oc2n[nH]c3nc(N4CCC5(CC4)Cc4ccccc4[C@H]5N)cnc23)c(Cl)c1=O` [Example 128, (S)-4-((6-(1-amino-1,3-dihydrospiro[indene-2,4′-piperidin]-1′-yl)-1H-pyrazolo[3,4-b]pyrazin-3-yl)oxy)-3-chloro-1-methylpyridin-2(H)-one] gave an IC50 of at most 50 nM.

Regarding `Cc1nccc(Sc2n[nH]c3nc(N4CCC5(CC4)Cc4ccccc4[C@H]5N)c(CO)nc23)c1Cl` [Example 89], the IC50 is at most 50 nM.

With `Cc1c(N2CCCc3ccccc32)nc2sc(N3CCC4(CC3)Cc3ccccc3[C@H]4N)nn12` [Example 207], the IC50 is 1000 to 10000 nM.

Compound `CN1CCN(c2n[nH]c3nc(N4CCC5(CC4)Cc4ccccc4[C@H]5N)cnc23)c2ccc(C#N)cc21` [Example 43] returned an IC50 of at most 50 nM.

`Nc1nccc(Sc2cnc(C34C[C@@H]5C[C@@]6(Cc7ccccc7[C@H]6N)C[C@H](C3)N54)cn2)c1Cl` (stereo partly shown) [Example 231] yielded an IC50 above 10000 nM.

For `N[C@@H]1c2ccccc2OC12CCN(c1cnc(Sc3ccnc(Cl)c3Cl)cn1)CC2` [Example 94], the IC50 is at most 50 nM.

Compound `N[C@H]1c2ccccc2C[C@]12CC=C(c1cnc3c(N4CCCc5ncccc54)n[nH]c3n1)CC2` [Example 174, (1R,1′R)-4-(3-(3,4-dihydro-1,5-naphthyridin-1(2H)-yl)-1H-pyrazolo[3,4-b]pyrazin-6-yl)-1′,3′-dihydrospiro[cyclohex[3]ene-1,2′-inden]-1′-amine] had an IC50 of at most 50 nM.

`COc1nc(N2CCC3(CC2)Cc2ccccc2[C@H]3N)ncc1Sc1cccc(Cl)c1Cl` [Example 262, (S)-1′-(5-((2,3-dichlorophenyl)thio)-4-methoxypyrimidin-2-yl)-1,3-dihydrospiro[indene-2,4′-piperidin]-1-amine] showed an IC50 of 50 to 1000 nM.

On to `N[C@@H]1c2ccccc2CC12CCN(c1cnc(N3CCC[C@H]3c3ccccc3)cn1)CC2` (racemic) [Example 165, (3S)-1′-{5-[(2S)-2-phenylpyrrolidin-1-yl]pyrazin-2-yl}-1,3-dihydrospiro[indene-2,4′-piperidin]-3-amine], for which the IC50 was above 10000 nM.

Regarding `N[C@@H]1c2ccccc2CC12CCN(c1cn3ccnc3cn1)CC2` [Example 169, (3S)-1′-{imidazo[1,2-a]pyrazin-6-yl}-1,3-dihydrospiro[indene-2,4′-piperidin]-3-amine], the IC50 lay within 1000 to 10000 nM.

The compound `N[C@@H]1c2ccccc2CC12CCN(c1cnc(OCc3cccc4cccnc34)cn1)CC2` [Example 198] showed an IC50 above 10000 nM.

`Cc1nc2c(N3CCCc4c3ccn(C)c4=O)n[nH]c2nc1N1CCC2(CC1)Cc1ccccc1[C@H]2N` [Example 247, 1-{6-[(3S)-3-amino-1,3-dihydrospiro[indene-2,4′-piperidin]-1′-yl]-5-methyl-1H-pyrazolo[3,4-b]pyrazin-3-yl}-6-methyl-1,2,3,4,5,6-hexahydro-1,6-naphthyridin-5-one]: the IC50 fell in the range of 1000 to 10000 nM.

`Cn1cc(-c2ccc3c(n2)CCCN3c2n[nH]c3nc(N4CCC5(CC4)Cc4cccc(F)c4[C@H]5N)cnc23)cn1` [Example 48] yielded a 50% inhibitory concentration (IC50) of at most 50 nM.

With `N[C@@H]1c2ccccc2CC12CCN(C(=O)c1csc(N3CCCCC3)n1)CC2` [Example 204], the half-maximal inhibitory concentration (IC50) is at most 50 nM.

The compound `Nc1nc(N2CCC3(CC2)Cc2ccccc2[C@@H]3N)cnc1-c1cccc(Cl)c1Cl` [Example 21, (3R)-1′-[6-amino-5-(2,3-dichlorophenyl)pyrazin-2-yl]-1,3-dihydrospiro[indene-2,4′-piperidin]-3-amine] yielded an IC50 of at most 50 nM.

A further test deals with NCI—H3122 (non-small cell lung cancer cells). The test can be described thus: Combination growth inhibition (isobologram), NCI-H3122. In kind it is cell-based. The conditions noted are these: crizotinib (ALK inhibitor) combined with a SHP2 inhibitor of the instant disclosure, FIG. 1B.
Take `C[C@@H](Oc1cc(-c2cnn(C3CCNCC3)c2)cnc1N)c1c(Cl)ccc(F)c1Cl` [crizotinib]: the “growth inhibition (isobologram)” value is listed as “synergistic growth inhibition”.

For a further test, the system named is KYSE520. The test can be described thus: Combination growth inhibition (isobologram), KYSE520. The format is cell-based. The conditions noted are these: erlotinib (EGFR inhibitor) combined with a SHP2 inhibitor of the instant disclosure; KYSE520 cells; FIG. 1A.
As to `C#Cc1cccc(Nc2ncnc3cc(OCCOC)c(OCCOC)cc23)c1` [erlotinib], the “growth inhibition (isobologram)” value is “synergistic growth inhibition”.

The test system of another test is NCI—H23 (KRAS G12C mutant non-small cell lung cancer cells). The test can be described thus: Combination growth inhibition (isobologram), NCI-H23. Conditions: ARS-1620 (KRAS G12C inhibitor) combined with a SHP2 inhibitor of the instant disclosure, FIG. 2B. In kind it is cell-based.
For `C=CC(=O)N1CCN(c2ncnc3c(F)c(-c4c(O)cccc4F)c(Cl)cc23)CC1` [ARS-1620], the “growth inhibition (isobologram)” value is listed as “synergistic growth inhibition”.

Another test deals with NCI—N87 (gastric cancer cells). Briefly: Combination growth inhibition (isobologram), NCI-N87. The format is cell-based. The conditions noted are these: selumetinib (MEK inhibitor) combined with a SHP2 inhibitor of the instant disclosure, FIG. 2A.
As for `Cn1cnc2c(F)c(Nc3ccc(Br)cc3Cl)c(C(=O)NOCCO)cc21` [selumetinib], the “growth inhibition (isobologram)” value is “synergistic growth inhibition”.

Another test has as its system HuH-7 (hepatocellular carcinoma cells). Briefly: Combination growth inhibition (isobologram), HuH-7. In kind it is cell-based. The conditions noted are these: AZD-4547 (FGFR inhibitor) combined with a SHP2 inhibitor of the instant disclosure; HuH-7 cells; FIG. 3.
With `COc1cc(CCc2cc(NC(=O)c3ccc(N4CC(C)NC(C)C4)cc3)n[nH]2)cc(OC)c1` (stereo not shown) [AZD-4547], the “growth inhibition (isobologram)” value was “synergistic growth inhibition”.
